In patent EP4324928A1, “SYNTHETIC REAGENTS FOR ENZYME-CATALYSED ALKYLATION” (priority 2022, dated 2024):
Substitutions are numbered along the chain they refer to. Counter-ions that a name gives are not always drawn.

Tests used:
[1] = rats; cited from earlier work
AtHMTV140A = target: T1, AtHMTV140A (Arabidopsis thaliana, UniProt Q0WP12, V140A); experiment: Time-dependent methylation of SAH with methyl iodide, initial rates, mutant versus AtHMT (HPLC); assay type: biochemical; conditions: 1 µM enzyme, 1 mM SAH, 2 mM Mel, 50 mM sodium phosphate buffer pH 8.0, 25 °C
T1 construct: made in house; host or cells: E. coli Δmtn (DE3)
T1 sequence (Q0WP12 1-227 V140A): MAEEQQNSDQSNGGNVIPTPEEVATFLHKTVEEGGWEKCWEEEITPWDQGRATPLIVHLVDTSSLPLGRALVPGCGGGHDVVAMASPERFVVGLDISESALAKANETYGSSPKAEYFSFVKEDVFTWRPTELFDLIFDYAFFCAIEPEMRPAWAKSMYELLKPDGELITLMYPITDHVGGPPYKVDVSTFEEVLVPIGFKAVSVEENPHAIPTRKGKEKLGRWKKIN

AtHMT Val140 to Thr = target: T2, AtHMT Val140 to Thr (Arabidopsis thaliana, UniProt Q0WP12, V140T); conditions: previous study; cited from earlier work
T2 sequence (Q0WP12 1-227 V140T): T1 sequence (Q0WP12 1-227 V140A) with A140T

monoamine oxidase = conditions: background statement; cited from earlier work
dsq = experiment: TPMT panel screen: SAM production from SAH with methyl donor (HPLC); assay type: biochemical, Dichomitus squalens; conditions: 2 mM DMSa, 1 mM SAH, 10 µM TPMT, 50 mM phosphate buffer pH 8.0, 25°C; complete conversion within 0.5 h
Excerpt: (§1) The inventors are not aware of any reports on SAM-dependent methyltransferases that transfer methyl groups from or to sulfates or sulfonates.^[18] […] To test this idea, the inventors assayed a panel of 13 distantly related TPMT homologs for the ability to produce SAM from SAH using DMSa, methyl methanesulfonate (MMSa), methyl toluenesulfonate (MeOTs) or methyl 4-nitrobenzenesulfonate (MeONs) as methyl donor. The proteins were produced in E. coli and purified following standard procedures . The activity of the enzymes was assayed in reactions containing 1 mM SAH, 50 mM phosphate buffer pH 8.0 and 2 mM of either methyl donor. The concentration of SAM after different incubation times (0.5- 24 h) was quantified by HPLC. […] In a nutshell, enzymes that have evolved to catalyze specific physiological reactions may have acquired - by chance - considerable activities for reactions they were never optimized for, while others - from the same enzyme family and with the same physiological function - may have not.

BxHMT = experiment: Time-dependent methylation of SAH by HMT using dimethyl sulfate with or without sodium iodide (HPLC); assay type: biochemical, Paraburkholderia xenovorans; conditions: 1 mM SAH, 2 mM DMSa, 0.1, 1.0 or 10 mM Nal (same efficiency without Nal), 50 mM phosphate buffer pH 8, within two hours
Method: (§4) The given values are averages of three independent measurements. The associated error is less than 30 % of the average value. […] In addition, the reactions contained 50 mM sodium phosphate buffer (pH 8.0) and were incubated at 25 °C. The concentration of SAM was determined by HPLC. A) with 10 µM BxHMT; B) with 10 µM AtHMT. […] The concentration of SAM was determined by HPLC; B) Initial rates of these reactions were estimated from the slopes of linear-fit curves of the points at 1, 2 and 4 minutes.

dba = experiment: TPMT panel screen: SAM production from SAH with methyl donor (HPLC); assay type: biochemical, Dehalococcoidia bacterium; conditions: 2 mM DMSa, 1 mM SAH, 10 µM TPMT, 50 mM phosphate buffer pH 8.0, 25°C; barely exceeds uncatalyzed background
Excerpt: as §1

AtHMT = target: T3, AtHMT (Arabidopsis thaliana, UniProt Q0WP12); experiment: Time-dependent methylation of SAH by HMT using dimethyl sulfate with or without sodium iodide (HPLC); assay type: biochemical; conditions: 1 mM SAH, 2 mM DMSa; efficient SAM production required 10 mM Nal
T3 construct: made in house; host or cells: E. coli Δmtn (DE3)
T3 sequence (Q0WP12 1-227): T1 sequence (Q0WP12 1-227 V140A) with A140V
Method: as §4

bma = target: T4, bma (Batis maritima, UniProt Q9ZSZ7); experiment: TPMT panel screen: SAM production from SAH with methyl donor (HPLC); assay type: biochemical; conditions: 2 mM DMSa, 1 mM SAH, 10 µM TPMT, 50 mM phosphate buffer pH 8.0, 25°C; barely exceeds uncatalyzed background
T4 construct: Leu-Glu-His6 (C); made in house; host or cells: E. coli Δmtn (DE3)
T4 sequence (Q9ZSZ7 1-230): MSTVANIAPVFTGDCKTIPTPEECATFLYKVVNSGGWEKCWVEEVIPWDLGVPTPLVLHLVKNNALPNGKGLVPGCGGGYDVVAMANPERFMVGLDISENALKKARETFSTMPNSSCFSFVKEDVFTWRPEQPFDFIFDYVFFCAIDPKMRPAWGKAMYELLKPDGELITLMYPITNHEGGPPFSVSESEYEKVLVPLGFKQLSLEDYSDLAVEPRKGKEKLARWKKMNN
Excerpt: as §1

acl = experiment: as above; assay type: biochemical, Aspergillus clavatus; conditions: 2 mM DMSa, 1 mM SAH, 10 µM TPMT, 50 mM phosphate buffer pH 8.0, 25°C; complete conversion within 0.5 h
Excerpt: as §1

msm = experiment: as above; assay type: biochemical, Mycolicibacterium smegmatis; conditions: 2 mM DMSa, 1 mM SAH, 10 µM TPMT, 50 mM phosphate buffer pH 8.0, 25°C; barely exceeds uncatalyzed background
Excerpt: as §1

bra = experiment: as above; assay type: biochemical, Brassica rapa chinensis; conditions: 2 mM DMSa, 1 mM SAH, 10 µM TPMT, 50 mM phosphate buffer pH 8.0, 25°C; barely exceeds uncatalyzed background
Excerpt: as §1

mac = experiment: as above; assay type: biochemical, Methanosarcina Acetivorans; conditions: 2 mM DMSa, 1 mM SAH, 10 µM TPMT, 50 mM phosphate buffer pH 8.0, 25°C; barely exceeds uncatalyzed background
Excerpt: as §1

nba = experiment: as above; assay type: biochemical, Nitrospinae bacterium; conditions: 2 mM DMSa, 1 mM SAH, 10 µM TPMT, 50 mM phosphate buffer pH 8.0, 25°C; barely exceeds uncatalyzed background
Excerpt: as §1

[2] = Stability test of methyl donors in phosphate buffer (1H NMR, hydrolysis and phosphorolysis); conditions: pH 8.4
Method: These solutions were monitored by ^1H NMR at time points between 0.5 to 24 hours to quantify the products of hydrolysis and phosphorolysis. The ^1H NMR signal peaks of all methyl species were integrated and the ratio of them was calculated. The percentage of methyl donor was plotted against time and the graph was fitted with exponential decay model to calculate the half-life of the methyl donor.

TPMT uma = experiment: TPMT-catalyzed SAH methylation using dimethyl sulfite as methyl group donor (HPLC); assay type: biochemical, Ustilago maydis; conditions: after 20-hour incubation
Excerpt: (§2) Dimethyl sulfite (Me2SO3) is used as an additive in some polymers to prevent oxidation. It is much less toxic than dimethyl sulfate and can be considered as a potential methyl group donor. Herein, the inventors performed SAH methylation with dimethyl sulfite (Figure 9).

TPMT acl = experiment: as above; assay type: biochemical, Aspergillus clavatus; conditions: after 20-hour incubation
Excerpt: as §2

TBU = experiment: as above; assay type: biochemical; conditions: after 20-hour incubation
Excerpt: as §2

TPMT kal = experiment: TPMT-catalyzed SAH alkylation using ethylene sulfate as alkyl group donor (HPLC); assay type: biochemical, Kordia algicida
Excerpt: (§3) Ethylene sulfate (C2H4SO4) is a two carbon-unit cyclic sulfate. The inventors also used ethylene sulfate to perform SAH alkylation (Figure 7).

TPMT CAK = experiment: as above; assay type: biochemical; conditions: new HPLC peak not identified as the desired product
Excerpt: as §3

ath_V140A = target: T5, ath_V140A (Arabidopsis thaliana, UniProt Q0WP12, V140A); experiment: as above; assay type: biochemical; conditions: new HPLC peak not identified as the desired product
T5 construct: made in house; host or cells: E. coli Δmtn (DE3)
T5 sequence (Q0WP12 1-227 V140A): T1 sequence (Q0WP12 1-227 V140A)
Excerpt: as §3

physchem = assay type: physicochemical; conditions: buffer, pH 8
Method: Ethylene sulfate (C2H4SO4) is a two carbon-unit cyclic sulfate. The inventors also used ethylene sulfate to perform SAH alkylation (Figure 7). A new peak with retention time at 15.7 minutes could be detected by HPLC in the reactions with about half number of TPMTs, although the new peak has not been identified as the desired product. If the new peak is the target product, especially for TPMT kal, 37% of SAH was converted to SAM analog after 4-hour incubation. For TPMT CAK and ath_V140A, they also got over 20% yield of SAM analog. In my opinion, the inactivation of TPMT during the reaction was not the reason of relatively low yield of SAM analog. […] During the reaction, most of ethylene sulfate hydrolyzed so that there was not enough ethylene sulfate to alkylate SAH.

For `CI` [Mel, methyl iodide], the LD50 [1] is given as 76 mg/kg, the “activity for Mel diminished (Val140 to Ala versus AtHMT)” value (AtHMTV140A) is given as 7 fold and the “catalytic efficiency for Mel reduced (Val140 to Thr)” value (AtHMT Val140 to Thr) is given as 6 fold.
In the case of `C[C@H](NCc1ccc(OCc2cccc(F)c2)cc1)C(N)=O` [safinamide], the “increased potency by addition of a single methyl group” value (monoamine oxidase) is given as 20 fold and the “increased selectivity by addition of a single methyl group” value (monoamine oxidase) is given as roughly 1000 fold.
In the case of `COS(=O)(=O)OC` [DMSa, dimethyl sulfate], the rate (dsq) is reported as greater than 3 turnover min^-1, the “SAH converted to SAM” value (BxHMT) is reported as 60 - 70% and the rate (dba) is reported as less than 0.01 min⁻¹. For the same compound, the “acceptance of DMSa as substrate” value (AtHMT) was “not a direct substrate”, the rate (bma) was less than 0.01 min⁻¹ and the rate (acl) was greater than 3 turnover min^-1. For the same compound, the rate (msm) was less than 0.01 min⁻¹, the rate (bra) was less than 0.01 min⁻¹ and the rate (mac) was less than 0.01 min⁻¹. It also gave a rate (nba) of less than 0.01 min⁻¹, a half-life ([2]; buffer) of 58.2 ± 3 min and a half-life [2] of 57 ± 4.2 min.
With `COS(=O)OC` [dimethyl sulfite, Dimethyl sulfite] the “yield of SAM” value (TPMT uma) was 8%, the “yield of SAM” value (TPMT acl) was 14% and the “yield of SAM” value (TBU) was 7%.
For `COS(=O)(=O)c1ccc(C)cc1` [MeOTs, methyl 4-toluenesulfonate], the half-life ([2]; buffer) was 1560 ± 60 min and the half-life [2] was 1260 ± 180 min.
With `O=S1(=O)OCCO1` [ethylene sulfate, Ethylene sulfate] the “yield of SAM analog” value (TPMT kal; 1 mM SAH, 1 mM ethylene sulfate added every half an hour, after 3-hour incubation) was 60%, the “SAH converted to SAM analog” value (TPMT kal; ethylene sulfate as donor, after 4-hour incubation, new HPLC peak not identified as the desired product) was 37% and the “yield of SAM analog” value (TPMT CAK) was “over 20%”. The “yield of SAM analog” value (ath_V140A) was “over 20%” and the half-life (physchem) was 11 min.
Compound `COS(=O)(=O)c1ccc([N+](=O)[O-])cc1` [MeONs, methyl 4-nitrobenzenesulfonate] has a half-life ([2]; buffer) of 180 ± 6 min.
Compound `COS(C)(=O)=O` [MMSa, methyl methanesulfonate] has a half-life ([2]; buffer) of 2040 ± 60 min and a half-life [2] of 1680 ± 240 min.
